Series [1] deals with Trichoderma reesei cellulase composition. It counts as biochemical. The note with it: AVICEL, 1 mM organic compound. The protocol:
Microcrystalline cellulose was used as the source of cellulosic material.
The concentration of each organic compound was 1 mM.

Series [2] has as its target T. aurantiacus GH61A polypeptide (Thermoascus aurantiacus, UniProt G3XAP7, N13Y). The experiment in a line: PACE analysis of products from PASC incubated with organic compound, Ca(II) and T. aurantiacus GH61A polypeptide at various pH. It counts as biochemical. How it is done: Polysaccharide-analysis-using-carbohydrate-gel-electrophoresis (PACE) was applied to analyze the products from incubation of cellulose in the presence of Ca(II) and ascorbate, cysteine or gallic acid and the T. aurantiacus GH61A polypeptide.
The mixture was filtered, and the filtrate (90 μl) was subjected to PACE analysis as described below. Buffers were varied to obtain the following pH values: formic acid at pH 4, acetic acid at pH 5, triethylammonium acetate at pH 6-7, and ammonium acetate at pH 8-9.
Carbohydrate products from the reaction were derivatized with 8-aminonaphthalene-1,3,6-trisulfonic acid (ANTS) fluorophore, applied to a polyacrylamide gel, and subjected to PACE, according to protocols adapted from (Goubet et al, 2002, Analytical Biochemistry 300: 53-68). Briefly, the derivatization was conducted by first drying 45 μl of the reaction products in a Jouan RC1010 vacuum concentrator system (Jouan Inc., Vallensbaekvej, Denmark) at 40° C. for about 3 hours, then mixing the dried products with 5 μl of 0.2 M ANTS in 15% acetic acid and 5 μl of 1 M NaBH3CN in DMSO, incubation at 37° C. in a thermomixer overnight followed by exposure to air for about 30 minutes, and then drying in a vacuum concentrator at 40° C. for about 4 hours. The ANTS-labeled samples were mixed with 20 μl of 6 M urea prior to PACE analysis.
Gels were cast according to Goubet et al., 2002, supra. The electrophoresis was performed with an SE 660 vertical electrophoresis system (GE Healthcare, Park Alle, Denmark) in a Tris/Borate buffer system at 200 V for 30 minutes and then at 1000 V for almost 2 hours at +5° C., followed by visualization using a UVP BioImaging System (UVP, LLC, Upland, Calif., USA) with UV transilluminator (Wavelength 365 nm UV-A) and EpiChem Darkroom combined with a camera system using a SYBR Gold™ emission filter (Syngene, Cambridge, United Kingdom).
Densitometry was performed by visual definition of a minimal space containing the band of interest, and integration of total pixel intensity within the space using a series of MatLab® scripts (The Mathworks, Natick, Mass., USA).

For series [3] the following is noted: cited from earlier work.

The source of these data is patent publication US8846351B2, “Compositions for enhancing hydroysis of cellulosic material by cellulolytic enzyme compositions” (Novozymes, Inc., priority 2010, dated 2014).

Where two headings read alike, the source gives them in different places.

Chain of T. aurantiacus GH61A polypeptide (G3XAP7 whole entry N13Y): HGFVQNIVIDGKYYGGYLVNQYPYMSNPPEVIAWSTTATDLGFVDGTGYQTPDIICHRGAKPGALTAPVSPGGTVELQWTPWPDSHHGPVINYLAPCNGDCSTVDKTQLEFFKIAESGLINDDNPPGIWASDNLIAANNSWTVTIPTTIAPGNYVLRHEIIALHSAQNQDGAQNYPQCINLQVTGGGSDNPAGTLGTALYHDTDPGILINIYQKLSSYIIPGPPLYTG

For the molecule `O=C(O)c1ccc(O)c(O)c1` [3,4-dihydroxybenzoic acid], in series [1] (pH 5.0, 50° C., 7 days), the “organic compound effect(no GH61)” value amounted to 0.977±0.0208.
As to `O=C(O)c1cc(O)cc(O)c1` [3,5-dihydroxybenzoic acid], the “organic compound effect(no GH61)” value in series [1] (pH 5.0, 50° C., 7 days) is “greater than 1”.
In the case of `COc1cc(C=CC(=O)O)ccc1O` [4-hydroxy-3-methoxycinnamic acid], the “organic compound effect(no GH61)” value was “below 1” in series [1] (pH 5.0, 50° C., 3 days) and “approximately 1” in series [1] (pH 5.0, 50° C., 7 days).
The corresponding values for `O=C(O)c1ccc(O)cc1` [4-hydroxybenzoic acid] are 0.959±0.0162 and 0.961±0.0250.
Consider `N[C@@H](CS)C(=O)O` [cysteine], for which, in series [2] (PASC, Ca(II), GH61A polypeptide, 50° C., pH at or above the pKa of the compound), the “products detected on PACE” value is given as “products similar to cellodextrins having 1-7 glucosyl units were detected”.
`O=C1OC(C(O)CO)C(=O)C1=O` (stereo not shown) [dehydroascorbate]: the “organic compound effect(no GH61)” value worked out at 1.05±0.0058 in series [1] (pH 5.0, 50° C., 3 days) and 1.14±0.00522 in series [1] (pH 5.0, 50° C., 7 days).
By pKa is commonly meant the pH at which an ionisable group is half protonated. Consider `O=C(O)c1cc(O)c(O)c(O)c1` [gallic acid], for which the “PACE band intensity as a function of pH (densitometry)” value in series [2] (cellodextrin bands of apparent DP 4, 8 and 9) was “increased in intensity with increasing pH”. The “PACE product bands at low pH” value in series [2] (lowest pH examined, 3.9) is given as “near zero”. Also, in series [2] (pH range about 3.9 to 5.6), the “shape of the increase of PACE band intensity with pH” value is “sharp increase in product intensity was noted between pH values of 4.5 and 5.5”. Moreover, in series [3], the pKa is given as 4.5.
For `N[C@@H](CCC(=O)O)C(=O)O` [glutamic acid], the “organic compound effect(no GH61)” value in series [1] (pH 5.0, 50° C., 3 days) was “below 1”; in series [1] (pH 5.0, 50° C., 7 days) it was “above 1”.
The corresponding values for `COC(=O)c1cc(O)c(O)c(O)c1` [methyl-3,4,5-trihydroxybenzoate] are 0.989±0.0121 and 0.947±0.00189.
Take `COC(=O)c1ccc(O)cc1` [methyl-4-hydroxybenzoate]: in series [1] (time not specified (FIG. 1: 3 and 7 days)), the “organic compound effect(no GH61)” value was “slightly inhibited”.
`Oc1ccccc1O` [pyrocatechol]: in series [1] (pH 5.0, 50° C., 7 days), the “organic compound effect(no GH61)” value is on record as 0.766±0.0361.
Take `Oc1cccc(O)c1O` [pyrogallol]: in series [1] (pH 5.0, 50° C., 7 days), the “organic compound effect(no GH61)” value was 0.735±0.00518.
Turning to `O=C(O)C(O)C(O)C(=O)O` (stereo not shown) [tartrate], the “organic compound effect(no GH61)” value is reported as “below 1” in series [1] (pH 5.0, 50° C., 3 days) and “below 1” in series [1] (pH 5.0, 50° C., 7 days).
